Measurements reported in patent US20100298141A1, “SUBSTITUTED PYRIDINE N-OXIDE HERBICIDES” (E. I. DU PONT DE NEMOURS AND COMPANY, priority 2007, published 2010).

What was measured:
[1] = test system: winter wheat (TRZAW); assay: Test H preemergence mixtures of compound 2 with crop safeners; format: in vivo, Triticum aestivum; parameters: key to TRZAW Obsd. (observed effect): observed % effect, visually evaluated vs controls
From the text: (§1) Seeds of test plants consisting of winter wheat (TRZAW, Triticum aestivum), corn (ZEAMD, Zea mays cv. ‘Pioneer 33G26’), giant foxtail (SETFA, Setaria faberi), and Italian ryegrass (LOLMU, Lolium multiflorum) were planted into a blend of loam soil and sand and treated preemergence with a directed soil spray using test chemicals formulated in a non-phytotoxic solvent mixture that included a surfactant. Seeds of small-seeded species were planted about 1 cm deep; larger seeds were planted about 2.5 cm deep. […] Balanced fertilizer was applied through the watering system. Treatments consisted of Compound 2 and the above mentioned safeners alone and in combination using a spray volume of 457 L/ha. Each treatment was replicated four times. Treated plants and controls were maintained in a greenhouse for 14 to 21 days, after which time all species were compared to controls and visually evaluated. […] A dash (-) response means no test result. Colby's Equation was used to determine the herbicidal effects expected from the mixtures. Colby's Equation (Colby, S. […] wherein • Pa+b is the percentage effect of the mixture expected from additive contribution of the individual components, • Pa is the observed percentage effect of the first active ingredient at the same use rate as in the mixture, and • Pb is the observed percentage effect of the second active ingredient at the same use rate as in the mixture.

[2] = test system: corn (ZEAMD); assay: as above; format: in vivo, Zea mays cv. ‘Pioneer 33G26’; parameters: key to ZEAMD Obsd. (observed effect): observed % effect, visually evaluated vs controls
From the text: as §1

[3] = test system: giant foxtail (SETFA); assay: as above; format: in vivo, Setaria faberi; parameters: key to SETFA Obsd. (observed effect): observed % effect, visually evaluated vs controls
From the text: as §1

[4] = test system: Italian ryegrass (LOLMU); assay: as above; format: in vivo, Lolium multiflorum; parameters: key to LOLMU Obsd. (observed effect): observed % effect, visually evaluated vs controls
From the text: as §1

[5] = test system: winter wheat (TRZAW); assay: Test I preemergence mixtures of compound 2 with crop safeners; format: in vivo, Triticum aestivum; conditions: alone
From the text: (§2) Seeds of test plants consisting of winter wheat (TRZAW, Triticum aestivum), corn (ZEAMD, Zea mays cv. ‘Pioneer 33G26’), wild oat (AVEFA, Avena fatua), and Italian ryegrass (LOLMU, Lolium multiflorum) were planted into a blend of loam soil and sand and treated preemergence with a directed soil spray using test chemicals formulated in a non-phytotoxic solvent mixture that included a surfactant. Seeds of small-seeded species were planted about 1 cm deep; larger seeds were planted about 2.5 cm deep. […] Balanced fertilizer was applied through the watering system. Treatments consisted of Compound 2 and the above mentioned safeners alone and in combination using a spray volume of 457 L/ha. Each treatment was replicated four times. Treated plants and controls were maintained in a greenhouse for 14 to 21 days, after which time all species were compared to controls and visually evaluated. […] A dash (-) response means no test result. Colby's Equation was used to determine the herbicidal effects expected from the mixtures. Colby's Equation (Colby, S. […] Pa+b=Pa+Pb−(PaPb/100) wherein • Pa+b is the percentage effect of the mixture expected from additive contribution of the individual components, • Pa is the observed percentage effect of the first active ingredient at the same use rate as in the mixture, and • Pb is the observed percentage effect of the second active ingredient at the same use rate as in the mixture.

[6] = test system: corn (ZEAMD); assay: as above; format: in vivo, Zea mays cv. ‘Pioneer 33G26’; conditions: alone
From the text: as §2

[7] = test system: wild oat (AVEFA); assay: as above; format: in vivo, Avena fatua; conditions: alone
From the text: as §2

[8] = test system: Italian ryegrass (LOLMU); assay: as above; format: in vivo, Lolium multiflorum; conditions: alone
From the text: as §2

[9] = test system: winter wheat (TRZAW); assay: Test J preemergence mixtures of Compound 2 with crop safeners; format: in vivo, Triticum aestivum; parameters: key to TRZAW Obsd. (observed effect): observed % herbicidal effect
From the text: as §1, with “aestivum) and” for “aestivum),”, “33G26’)” for “33G26’), giant foxtail (SETFA, Setaria faberi), and Italian ryegrass (LOLMU, Lolium multiflorum)”, “surfactant.” for “surfactant. Seeds of small-seeded species were planted about 1 cm deep; larger seeds were planted about 2.5 cm deep.”, “times.” for “times. Treated plants and controls were maintained in a greenhouse for 14 to 21 days, after which time all species were compared to controls and visually evaluated.”, “and” for “and •”

[10] = test system: corn (ZEAMD); assay: as above; format: in vivo, Zea mays cv. ‘Pioneer 33G26’; parameters: key to ZEAMD Obsd. (observed effect): observed % herbicidal effect
From the text: as §1, with “aestivum) and” for “aestivum),”, “33G26’)” for “33G26’), giant foxtail (SETFA, Setaria faberi), and Italian ryegrass (LOLMU, Lolium multiflorum)”, “surfactant.” for “surfactant. Seeds of small-seeded species were planted about 1 cm deep; larger seeds were planted about 2.5 cm deep.”, “times.” for “times. Treated plants and controls were maintained in a greenhouse for 14 to 21 days, after which time all species were compared to controls and visually evaluated.”, “and” for “and •”

[11] = Cmpd 2 alone 125 g a.i./ha, scale 0 to 100, mean of four replicates
[12] = single active ingredient alone at 125 g a.i./ha

Cc1cc[n+]([O-])c(S(=O)(=O)Cc2c(C(F)(F)F)nn(C)c2OC(F)F)c1 [Compound 2]
Plant response rating TRZAW Obsd. [1, 11]: 63 | TRZAW Obsd. (observed effect) ([1]; Test H, alone, 125 g a.i./ha): 63 | Plant response rating ZEAMD Obsd. [2, 11]: 15 | ZEAMD Obsd. (observed effect) ([2]; Test H, alone, 125 g a.i./ha): 15 | Plant response rating SETFA Obsd. [3, 11]: 100 | SETFA Obsd. (observed effect) ([3]; Test H, alone, 125 g a.i./ha): 100 | Plant response rating LOLMU Obsd. [4, 11]: 53 | LOLMU Obsd. (observed effect) ([4]; Test H, alone, 125 g a.i./ha): 53 | TRZAW Obsd. (observed effect) ([5]; 125 g a.i./ha): 93 | TRZAW Obsd. (observed effect) ([5]; 250 g a.i./ha): 100 | ZEAMD Obsd. (observed effect) ([6]; 125 g a.i./ha): 69 | ZEAMD Obsd. (observed effect) ([6]; 250 g a.i./ha): 93 | AVEFA Obsd. (observed effect) ([7]; 125 g a.i./ha): 93 | AVEFA Obsd. (observed effect) ([7]; 250 g a.i./ha): 96 | LOLMU Obsd. (observed effect) ([8]; 125 g a.i./ha): 48 | LOLMU Obsd. (observed effect) ([8]; 250 g a.i./ha): 89 | TRZAW Obsd. (observed effect) ([9]; Test J, alone, 125 g a.i./ha): 100 | Observed effect (Obsd.), TRZAW [9, 12]: 100% | ZEAMD Obsd. (observed effect) ([10]; Test J, alone, 125 g a.i./ha): 35 | Observed effect (Obsd.), ZEAMD [10, 12]: 35%
